Measurements from patent publication US20240150362A1, “Substituted Pyrrolotriazines” (Molecure S.A., priority 2022, published 2024).
Counter-ions that a name gives are not always drawn.

target: T1, full-length USP7 (Homo sapiens, UniProt Q93009); experiment: Enzymatic assay to determine IC50 of USP7 inhibitors (Ubiquitin-Rhodamine 110 cleavage); type: biochemical; details: full-length USP7 0.5-1.0 nM, 0.5 μM Ubiquitin-Rhodamine 110, 30-60 min at 25° C.
T1 construct: A 45 μl reaction volume containing full-length USP7 (0.5-1.0 nM)
Experimental: Enzymatic Assay to Determine IC50 of USP7 Inhibitors
The IC50 is the concentration of an inhibitor where the measured enzyme activity is reduced by half. In the case of USP7 deubiquitinase, the IC50 of an USP7 inhibitor is the molar concentration of the compound that inhibits 50% of the activity observed in a USP7-mediated-ubiquitin-rhodamine cleavage assay. For the inhibitors disclosed herein, their potency was measured using the following method.
A 45 μl reaction volume containing full-length USP7 (0.5-1.0 nM) in 50 mM HEPES pH 7.5, 150 mM NaCl, 2 mM DTT, 1 mg/ml BSA and 0.05% Tween20 was assembled in wells of 96 well half area black flat bottom plates. Test compounds were first dissolved to 30 mM stocks in DMSO and subsequently introduced to enzyme 15 min after USP7 incubation with DTT at room temperature. The enzymatic reaction was started by adding 0.5 μM Ubiquitin-Rhodamine 110 (final concentration) and allowed to proceed for 30-60 min at 25° C., 250 RPM shaking before Rhodamine fluorescence (485 nm excitation/535 nm emission) was measured using Tecan Spark M10 plate reader. The IC50 values were determined by data fitting to variable slope model four-parameter dose-response curve using GraphPad 7.05.

T1 sequence (Q93009 whole entry): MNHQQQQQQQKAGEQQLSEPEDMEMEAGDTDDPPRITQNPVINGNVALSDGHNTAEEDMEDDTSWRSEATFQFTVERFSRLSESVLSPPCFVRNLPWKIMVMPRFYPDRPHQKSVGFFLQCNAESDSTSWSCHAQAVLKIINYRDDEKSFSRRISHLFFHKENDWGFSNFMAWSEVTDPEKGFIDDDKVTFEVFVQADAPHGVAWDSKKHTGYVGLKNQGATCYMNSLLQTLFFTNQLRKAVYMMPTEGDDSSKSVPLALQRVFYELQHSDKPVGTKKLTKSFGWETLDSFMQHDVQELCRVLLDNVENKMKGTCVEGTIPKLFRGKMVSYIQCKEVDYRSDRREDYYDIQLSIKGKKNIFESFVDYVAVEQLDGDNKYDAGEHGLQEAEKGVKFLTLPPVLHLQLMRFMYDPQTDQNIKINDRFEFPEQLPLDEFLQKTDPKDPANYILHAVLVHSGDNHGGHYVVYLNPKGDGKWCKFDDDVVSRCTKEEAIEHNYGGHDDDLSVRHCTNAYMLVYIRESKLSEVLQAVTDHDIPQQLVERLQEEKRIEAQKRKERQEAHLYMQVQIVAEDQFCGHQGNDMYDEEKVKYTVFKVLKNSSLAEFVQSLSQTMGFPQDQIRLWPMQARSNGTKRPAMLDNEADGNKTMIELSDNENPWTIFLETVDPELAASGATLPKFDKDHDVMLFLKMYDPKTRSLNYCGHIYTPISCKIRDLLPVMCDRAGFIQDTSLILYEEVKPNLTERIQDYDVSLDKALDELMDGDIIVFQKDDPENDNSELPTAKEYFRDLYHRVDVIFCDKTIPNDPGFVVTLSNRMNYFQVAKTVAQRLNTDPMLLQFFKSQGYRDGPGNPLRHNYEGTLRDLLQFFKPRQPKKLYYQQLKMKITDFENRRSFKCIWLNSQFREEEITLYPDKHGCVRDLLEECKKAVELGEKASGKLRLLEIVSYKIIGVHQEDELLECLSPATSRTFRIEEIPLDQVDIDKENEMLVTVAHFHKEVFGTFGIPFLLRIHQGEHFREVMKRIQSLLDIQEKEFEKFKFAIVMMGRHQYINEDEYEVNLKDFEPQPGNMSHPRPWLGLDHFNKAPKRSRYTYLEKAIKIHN

IC50, < 0.5 µM:
CC1(C)C2C(=O)N(Cc3cc4c(-c5cc(Cl)cc6ccn(CC7(F)CCCNC7)c56)ncnn4c3)C(=O)C21 (stereo not drawn) [Example 29, 3-((4-(5-chloro-1-((3-fluoropiperidin-3-yl)methyl)-1H-indol-7-yl)pyrrolo[2,1-f][1,2,4]triazin-6-yl)methyl)-6,6-dimethyl-3-azabicyclo[3.1.0]hexane-2,4-dione hydrochloride]
CC1(C)C2C(=O)N(Cc3cc4c(-c5cc([N+](=O)[O-])cc6ccn(C[C@@H]7CNCCO7)c56)ncnn4c3)C(=O)C21 (stereo partly drawn) [Example 32, 6,6-dimethyl-3-((4-(1-(((S)-morpholin-2-yl)methyl)-5-nitro-1H-indol-7-yl)pyrrolo[2,1-f][1,2,4]triazin-6-yl)methyl)-3-azabicyclo[3.1.0]hexane-2,4-dione 2,2,2-trifluoroacetate]
CC1(C)C2C(=O)N(Cc3cc4c(-c5cc(C(F)(F)F)cc6ccn(C[C@@H]7CNCCO7)c56)ncnn4c3)C(=O)C21 (stereo partly drawn) [Example 35, 6,6-dimethyl-3-((4-(1-(((S)-morpholin-2-yl)methyl)-5-(trifluoromethyl)-1H-indol-7-yl)pyrrolo[2,1-f][1,2,4]triazin-6-yl)methyl)-3-azabicyclo[3.1.0]hexane-2,4-dione 2,2,2-trifluoroacetate]
O=C1CNC(=O)N1Cc1cc2c(-c3cc(Cl)cc4ccn(C[C@@H]5CNCCO5)c34)ncnn2c1 [Example 37, (S)-3-((4-(5-chloro-1-(morpholin-2-ylmethyl)-1H-indol-7-yl)pyrrolo[2,1-f][1,2,4]triazin-6-yl)methyl)imidazolidine-2,4-dione hydrochloride]
Cn1ccc(=O)n(Cc2cc3c(-c4cc(Cl)cc5ccn(C[C@@H]6CNCCO6)c45)ncnn3c2)c1=O [Example 39, (S)-3-((4-(5-chloro-1-(morpholin-2-ylmethyl)-1H-indol-7-yl)pyrrolo[2,1-f][1,2,4]triazin-6-yl)methyl)-1-methylpyrimidine-2,4(1H,3H)-dione hydrochloride]
CC1(C)C2C(=O)N(Cc3cc4c(-c5cc(Cl)cc6cnn(C[C@@H]7CNCCO7)c56)ncnn4c3)C(=O)C21 (stereo partly drawn) [Example 44, 3-((4-(5-chloro-1-(((S)-morpholin-2-yl)methyl)-1H-indazol-7-yl)pyrrolo[2,1-f][1,2,4]triazin-6-yl)methyl)-6,6-dimethyl-3-azabicyclo[3.1.0]hexane-2,4-dione 2,2,2-trifluoroacetate]
CC1(C)C2C(=O)N(Cc3cc4c(-c5cc(Cl)cc6c(F)nn(C[C@@H]7CNCCO7)c56)ncnn4c3)C(=O)C21 (stereo partly drawn) [Example 45, 3-((4-(5-chloro-3-fluoro-1-(((S)-morpholin-2-yl)methyl)-1H-indazol-7-yl)pyrrolo[2,1-f][1,2,4]triazin-6-yl)methyl)-6,6-dimethyl-3-azabicyclo[3.1.0]hexane-2,4-dione hydrochloride]
Cc1cc(Cl)cc(-c2ncnn3cc(CN4C(=O)C5C(C4=O)C5(C)C)cc23)c1OCC1CCNCC1 (stereo not drawn) [Example 48, 3-((4-(5-chloro-3-methyl-2-(piperidin-4-ylmethoxy)phenyl)pyrrolo[2,1-f][1,2,4]triazin-6-yl)methyl)-6,6-dimethyl-3-azabicyclo[3.1.0]hexane-2,4-dione hydrochloride]
Cc1cc(Cl)cc(-c2ncnn3cc(CN4C(=O)C5C(C4=O)C5(C)C)cc23)c1CC1CN[C@@H](C)CO1 (stereo partly drawn) [Example 49, 3-((4-(5-chloro-3-methyl-2-(((5S)-5-methylmorpholin-2-yl)methyl)phenyl)pyrrolo[2,1-f][1,2,4]triazin-6-yl)methyl)-6,6-dimethyl-3-azabicyclo[3.1.0]hexane-2,4-dione hydrochloride]
CC1(C)C2C(=O)N(Cc3cc4c(-c5cc(Cl)cc6c5N(C5CCNC5)CCO6)ncnn4c3)C(=O)C21 (stereo not drawn) [Example 55, 3-((4-(7-chloro-4-(pyrrolidin-3-yl)-3,4-dihydro-2H-benzo[b][1,4]oxazin-5-yl)pyrrolo[2,1-f][1,2,4]triazin-6-yl)methyl)-6,6-dimethyl-3-azabicyclo[3.1.0]hexane-2,4-dione hydrochloride]
Cc1cc(Cl)cc(-c2ncnn3cc(CN4C(=O)C5C(C4=O)C5(C)C)cc23)c1OCC1(C)CCNCC1 (stereo not drawn) [Example 58, 3-((4-(5-chloro-3-methyl-2-((4-methylpiperidin-4-yl)methoxy)phenyl)pyrrolo[2,1-f][1,2,4]triazin-6-yl)methyl)-6,6-dimethyl-3-azabicyclo[3.1.0]hexane-2,4-dione hydrochloride]
Cc1cc(Cl)cc(-c2ncnn3cc(Cn4c(=O)ccn(C)c4=O)cc23)c1CC1CNC[C@H](C)O1 (stereo partly drawn) [Example 59, 3-((4-(5-chloro-3-methyl-2-(((6S)-6-methylmorpholin-2-yl)methyl)phenyl)pyrrolo[2,1-f][1,2,4]triazin-6-yl)methyl)-1-methylpyrimidine-2,4(1H,3H)-dione hydrochloride]
Cn1ccc(=O)n(Cc2cc3c(-c4cc(Cl)cc5ccn(CC6(F)CCNCC6)c45)ncnn3c2)c1=O [Example 61, 3-((4-(5-chloro-1-((4-fluoropiperidin-4-yl)methyl)-1H-indol-7-yl)pyrrolo[2,1-f][1,2,4]triazin-6-yl)methyl)-1-methylpyrimidine-2,4(1H,3H)-dione hydrochloride]
Cc1cc(Cl)cc(-c2ncnn3cc(Cn4c(=O)ccn(CC(F)(F)F)c4=O)cc23)c1CC1CNC[C@H](C)O1 (stereo partly drawn) [Example 62, 3-((4-(5-chloro-3-methyl-2-(((6S)-6-methylmorpholin-2-yl)methyl)phenyl)pyrrolo[2,1-f][1,2,4]triazin-6-yl)methyl)-1-(2,2,2-trifluoroethyl)pyrimidine-2,4(1H,3H)-dione hydrochloride]
CC1(C)C2C(=O)N(Cc3cc4c(-c5cc(Cl)cc6c5N(CC5(F)CCNCC5)CCC6)ncnn4c3)C(=O)C21 (stereo not drawn) [Example 63, 3-((4-(6-chloro-1-((4-fluoropiperidin-4-yl)methyl)-1,2,3,4-tetrahydroquinolin-8-yl)pyrrolo[2,1-f][1,2,4]triazin-6-yl)methyl)-6,6-dimethyl-3-azabicyclo[3.1.0]hexane-2,4-dione hydrochloride]
O=c1ccn(CC(F)(F)F)c(=O)n1Cc1cc2c(-c3cc(Cl)cc4ccn(CC5(F)CCNCC5)c34)ncnn2c1 [Example 70, 3-((4-(5-chloro-1-((4-fluoropiperidin-4-yl)methyl)-1H-indol-7-yl)pyrrolo[2,1-f][1,2,4]triazin-6-yl)methyl)-1-(2,2,2-trifluoroethyl)pyrimidine-2,4(1H,3H)-dione dihydrochloride]
Cc1cc(Cl)cc(-c2ncnn3cc(CN4C(=O)C5C(C4=O)C5(C)C)cc23)c1NCC1(C)CCNCC1 (stereo not drawn) [Example 78, 3-((4-(5-chloro-3-methyl-2-(((4-methylpiperidin-4-yl)methyl)amino)phenyl)pyrrolo[2,1-f][1,2,4]triazin-6-yl)methyl)-6,6-dimethyl-3-azabicyclo[3.1.0]hexane-2,4-dione dihydrochloride]
Cc1cc(Cl)cc(-c2ncnn3cc(CN4C(=O)C5C(C4=O)C5(C)C)cc23)c1NCC1(F)CCNCC1 (stereo not drawn) [Example 80, 3-((4-(5-chloro-2-(((4-fluoropiperidin-4-yl)methyl)amino)-3-methylphenyl)pyrrolo[2,1-f][1,2,4]triazin-6-yl)methyl)-6,6-dimethyl-3-azabicyclo[3.1.0]hexane-2,4-dione dihydrochloride]
C[C@@H]1CN(C2CCNC2)c2c(cc(Cl)cc2-c2ncnn3cc(CN4C(=O)C5C(C4=O)C5(C)C)cc23)O1 (stereo partly drawn) [Example 93, 3-((4-((2R)-7-chloro-2-methyl-4-(pyrrolidin-3-yl)-3,4-dihydro-2H-benzo[b][1,4]oxazin-5-yl)pyrrolo[2,1-f][1,2,4]triazin-6-yl)methyl)-6,6-dimethyl-3-azabicyclo[3.1.0]hexane-2,4-dione hydrochloride]
C[C@H]1CN(C2CCNC2)c2c(cc(Cl)cc2-c2ncnn3cc(CN4C(=O)C5C(C4=O)C5(C)C)cc23)O1 (stereo partly drawn) [Example 94, 3-((4-((2S)-7-chloro-2-methyl-4-(pyrrolidin-3-yl)-3,4-dihydro-2H-benzo[b][1,4]oxazin-5-yl)pyrrolo[2,1-f][1,2,4]triazin-6-yl)methyl)-6,6-dimethyl-3-azabicyclo[3.1.0]hexane-2,4-dione hydrochloride]
Cc1cc(Cl)cc(-c2ncnn3cc(Cn4c(=O)ccn(CC(F)F)c4=O)cc23)c1CC1CNC[C@H](C)O1 (stereo partly drawn) [Example 95, 3-((4-(5-chloro-3-methyl-2-(((6S)-6-methylmorpholin-2-yl)methyl)phenyl)pyrrolo[2,1-f][1,2,4]triazin-6-yl)methyl)-1-(2,2-difluoroethyl)pyrimidine-2,4(1H,3H)-dione hydrochloride]
